Experimental data from the supplement of paper PMC10307832.

Tests used:
Test in all cases: relative viability (nuclei count vs DMSO), 5 days (fraction); higher = more cells survive
[1] = compound: CCC1=CN=CN=C1N2CCN(CC2)CC3=NC4=C(N3)C=C(C=C4)C(F)(F)F + CCNC(=O)c1noc(-c2cc(C(C)C)c(O)cc2O)c1-c1ccc(CN2CCOCC2)cc1 [Luminespib] (partner 0.01 µM)
Outline: (§1)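 Values are medians from duplicate plates. Each reflects relative viability, defined as the nuclei count of treated wells over that of vehicle wells. Lung cancer cell lines in 1536-well plates were pin-tool dosed one day after seeding with one drug alone or with a fixed anchor-drug dose plus five library-drug doses (not always all listed) in √10 steps, then fixed, stained and imaged at 4× after 5 days.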

[2] = compound: CCC1=CN=CN=C1N2CCN(CC2)CC3=NC4=C(N3)C=C(C=C4)C(F)(F)F + Cc1nc(Nc2ncc(C(=O)Nc3c(C)cccc3Cl)s2)cc(N2CCN(CCO)CC2)n1 [Dasatinib] (partner 0.075 µM)
Outline: as §1

[3] = compound: CCn1c(-c2nonc2N)nc2cnc(Oc3cccc(NC(=O)c4ccc(OCCN5CCOCC5)cc4)c3)cc21 + COc1cccc2cc(-c3nc([C@H]4CC[C@H](C(=O)O)CC4)n4ncnc(N)c34)[nH]c12 [OSI-027] (partner 0.5 µM)
Outline: as §1

Mirin + Vorinostat = compound: N=C1NC(=O)/C(=C/c2ccc(O)cc2)S1 [Mirin] + O=C(CCCCCCC(=O)Nc1ccccc1)NO [Vorinostat] (partner 1 µM)
Outline: as §1

Cell Line | relative viability ([1]; first compound 0.04 µM) | relative viability ([1]; first compound 0.1265 µM) | relative viability ([1]; first compound 0.4 µM) | relative viability ([1]; first compound 1.265 µM) | relative viability ([1]; first compound 4 µM) | relative viability ([2]; first compound 0.04 µM) | relative viability ([2]; first compound 0.1265 µM) | relative viability ([2]; first compound 0.4 µM) | relative viability ([2]; first compound 1.265 µM) | relative viability ([2]; first compound 4 µM) | relative viability ([3]; first compound 0.04 µM) | relative viability ([3]; first compound 0.1265 µM) | relative viability ([3]; first compound 0.4 µM) | relative viability ([3]; first compound 1.265 µM) | relative viability ([3]; first compound 4 µM) | relative viability (Mirin + Vorinostat; first compound 0.25 µM) | relative viability (Mirin + Vorinostat; first compound 0.7906 µM) | relative viability (Mirin + Vorinostat; first compound 2.5 µM) | relative viability (Mirin + Vorinostat; first compound 7.906 µM) | relative viability (Mirin + Vorinostat; first compound 25 µM)
201T | 1.08 | 1.04 | 0.974 | 0.938 | 0.96 | 0.527 | 0.565 | 0.559 | 0.568 | 0.541 | 0.857 | 0.773 | 0.38 | 0.674 | 0.806 | 1.02 | 1.14 | 0.956 | 1.07 | 1.18
A-427 | 0.874 | 0.881 | 0.908 | 0.75 | 0.722 | 0.563 | 0.753 | 0.659 | 0.614 | 0.655 | 0.585 | 0.545 | 0.328 | 0.411 | 0.352 | 0.84 | 0.922 | 0.904 | 0.878 | 0.956
ABC-1 | 0.636 | – | – | 0.504 | 0.527 | 0.66 | 0.507 | 0.614 | 0.495 | 0.449 | 0.492 | 0.751 | 0.272 | 0.418 | 0.3 | 1.29 | 1.12 | 1.36 | 0.871 | 0.772
BEN | 0.227 | 0.212 | 0.319 | 0.289 | 0.13 | 0.241 | 0.261 | 0.303 | 0.335 | 0.288 | 0.27 | 0.267 | 0.243 | 0.266 | 0.24 | 0.473 | 0.58 | 0.6 | 0.555 | 0.542
CAL-12T | 0.803 | 0.454 | 0.485 | 0.273 | 0.29 | 0.336 | 0.352 | 0.417 | 0.518 | 0.36 | 0.857 | 0.826 | 0.43 | 0.603 | 0.469 | 0.622 | 0.868 | 0.886 | 0.828 | 0.697
COR-L23 | 0.717 | 0.629 | 0.641 | 0.654 | 0.545 | 0.536 | 0.477 | 0.502 | 0.481 | 0.484 | 0.686 | 0.54 | 0.326 | 0.207 | 0.144 | 0.453 | 0.585 | 0.488 | 0.327 | 0.31
COR-L 105 | 0.8 | 1.08 | 0.77 | 0.724 | 0.732 | 0.279 | 0.316 | 0.362 | 0.399 | 0.338 | 0.976 | 0.654 | 0.361 | 0.374 | 0.26 | 0.822 | 1.01 | 0.983 | 0.758 | 0.655
ChaGo-K-1 | 0.566 | 0.591 | 0.62 | 0.548 | 0.432 | 0.654 | 0.635 | 0.555 | 0.615 | 0.492 | 0.679 | 0.521 | 0.313 | 0.393 | 0.307 | 0.741 | 0.652 | 0.746 | 0.638 | 0.596
EKVX | 0.846 | 0.83 | 0.882 | – | 0.919 | 0.558 | 0.484 | 0.527 | 0.491 | 0.415 | 0.839 | 0.77 | 0.613 | 0.65 | 0.545 | 0.784 | – | 0.785 | 0.935 | 0.799
EMC-BAC-2 | 1.24 | 1.19 | 1.2 | – | 1.14 | 0.358 | 0.354 | 0.322 | – | 0.289 | 0.364 | 0.287 | 0.161 | 0.18 | 0.2 | 0.426 | 0.402 | 0.493 | 0.35 | 0.6
EPLC-272H | 0.24 | 0.344 | 0.21 | 0.25 | 0.3 | 0.332 | 0.33 | 0.313 | 0.291 | 0.421 | 0.363 | 0.339 | 0.246 | 0.234 | 0.247 | 0.415 | 0.549 | 0.487 | 0.349 | 0.192
H3255 | 0.785 | 0.853 | 0.72 | 0.619 | 0.859 | 0.308 | 0.294 | 0.347 | 0.367 | 0.317 | 0.831 | 0.713 | 0.603 | 0.506 | 0.638 | 0.547 | 0.678 | 0.846 | 0.789 | 0.814
HARA | 0.668 | 0.561 | 0.682 | – | 0.555 | 0.371 | 0.337 | 0.19 | – | 0.203 | 0.533 | 0.38 | 0.141 | 0.148 | 0.102 | 0.537 | 0.533 | 0.567 | 0.597 | 0.502
HCC-15 | 0.308 | 0.299 | 0.27 | 0.299 | 0.406 | 0.632 | 0.552 | 0.597 | 0.624 | 0.594 | 0.806 | 0.617 | 0.324 | – | 0.536 | 0.902 | 0.955 | 0.915 | 0.838 | 0.82
HCC-44 | 1.02 | 1.01 | 1.03 | 0.88 | 1.07 | – | – | – | – | – | 0.533 | 0.423 | 0.175 | 0.111 | 0.225 | 1.12 | 1.2 | 1.05 | 1.15 | 1.35
HCC-78 | – | – | – | – | – | 0.327 | 0.416 | 0.374 | 0.316 | 0.363 | 0.43 | 0.429 | – | 0.574 | 0.625 | 0.41 | 0.473 | 0.472 | 0.399 | 0.471
HCC-366 | – | – | – | – | – | 0.566 | 0.655 | 0.567 | 0.583 | 0.629 | 1.21 | 0.939 | 0.203 | 0.0538 | 0.0491 | 0.391 | 0.203 | 0.404 | 0.244 | 0.413
HCC-827 | 0.687 | 0.588 | 0.544 | – | 0.587 | 0.323 | 0.298 | 0.313 | 0.364 | 0.355 | 0.961 | 0.855 | 0.78 | 0.707 | 0.756 | 0.184 | 0.863 | 0.937 | 0.828 | 0.987
HOP-62 | 1.11 | 0.991 | 0.895 | 0.954 | 0.816 | 0.589 | 0.584 | 0.539 | 0.626 | 0.653 | 0.998 | 0.734 | 0.56 | 0.422 | 0.469 | 0.669 | 0.527 | 0.679 | 0.411 | 0.603
IA-LM | – | – | – | – | – | – | – | – | – | – | – | – | – | – | – | 0.975 | 1.01 | 1.01 | – | 1.17
LC-2-ad | 0.952 | 1.01 | 1.01 | 0.873 | 0.939 | 0.489 | 0.542 | 0.508 | 0.507 | 0.484 | 0.892 | 0.8 | 0.39 | 0.386 | 0.498 | 0.641 | 0.7 | 0.713 | 0.624 | 0.679
LCLC-97TM1 | 0.706 | 0.779 | 0.724 | 0.733 | 0.716 | 0.881 | 0.765 | 0.668 | 0.816 | 0.897 | 0.516 | 0.655 | 0.254 | 0.691 | 0.528 | 0.887 | 0.204 | 0.743 | 0.697 | 0.679
LCLC-103H | 0.948 | 0.98 | 0.999 | 0.886 | 0.721 | 0.473 | 0.444 | 0.414 | 0.483 | 0.474 | 0.522 | 0.448 | 0.231 | 0.312 | 0.323 | 0.774 | 0.695 | 0.79 | 0.793 | 0.868
LK-2 | 0.204 | 0.182 | 0.159 | 0.195 | 0.202 | 0.325 | 0.314 | 0.257 | 0.258 | 0.318 | 0.201 | 0.225 | 0.18 | 0.196 | 0.206 | 0.204 | 0.234 | 0.294 | 0.207 | 0.271
LOU-NH91 | 0.341 | 0.403 | 0.32 | 0.323 | 0.313 | 0.477 | 0.466 | 0.485 | 0.533 | 0.568 | 0.741 | 0.561 | 0.44 | 0.426 | 0.471 | 0.908 | 0.902 | 1 | 0.843 | 1.16
LU99A | 0.247 | 0.227 | 0.309 | 0.22 | 0.229 | 0.718 | 0.511 | 0.458 | 0.602 | 0.7 | 0.298 | 0.254 | 0.227 | 0.259 | 0.225 | 0.44 | 0.44 | 0.474 | 0.457 | 0.33
NCI-H1563 | 0.539 | 0.545 | 0.529 | 0.478 | 0.531 | 0.472 | 0.476 | 0.489 | 0.435 | 0.513 | 0.697 | 0.705 | 0.576 | 0.724 | 0.644 | – | – | – | – | –
NCI-H1623 | 0.44 | 0.513 | 0.383 | 0.476 | 0.651 | 0.455 | 0.501 | 0.548 | 0.564 | 0.562 | 0.513 | 0.488 | 0.351 | 0.43 | 0.542 | – | – | – | – | –
NCI-H1648 | – | – | – | – | – | – | – | – | – | – | 0.258 | 0.393 | 0.276 | 0.314 | 0.327 | 0.421 | – | 0.601 | 0.424 | 0.299
NCI-H1792 | 0.507 | 0.496 | 0.427 | – | 0.42 | 1 | 0.754 | 0.515 | 0.685 | 0.602 | 0.862 | 0.513 | – | 0.596 | 0.7 | – | – | – | – | –
